Experimental data reported in patent publication US12187721B2, “Protein tyrosine phosphatase inhibitors” (Array BioPharma Inc., priority 2018, dated 2025).

Biological target: T1, full-length SHP2 (His6-tagged SHP2(2-527)) (Homo sapiens, UniProt Q06124)
T1 construct: His6-tagged SHP2(2-527); His6; made in house; host or cells: E. coli
Experiment: SHP2 Enzymatic Assay (fluorescence intensity kinetic assay, DiFMUP hydrolysis)
Assay type: biochemical
Settings: not given
Protocol: A fluorescence intensity kinetic assay was configured for full-length SHP2 that monitors the amount of 6,8-difluoro-7-hydroxy-4-methylcoumarin (“DiFMU”) formed upon hydrolysis of 6,8-difluoro-4-methylumbelliferyl phosphate (“DiFMUP”) by SHP2. Assay mixtures consisted of 25 mM K^+HEPES, pH 7.4, 0.01% Triton X-100, 1 mM DTT, 50 mM KCl, 100 μg/mL bovine γ-globulin, 50 μM DiFMUP, 1 μM SHP2 activating peptide (LN(pY)IDLDLV(dPEG8)LST(pY)ASINFQK-amide), 1 nM full-length SHP2 (His6-tagged SHP2(2-527), recombinantly expressed in E. coli and purified in-house) and 2% dimethylsulfoxide (“DMSO”) (from compound). […] The assay was run in 384-well, polystyrene, low-volume, non-treated, black microtiter plates (Costar 4511) in a final volume of 20 μL. Low control wells lacked enzyme. The assays were initiated by the addition of a mixture of SHP2 and the activating peptide, and following a 15 second mix on an orbital shaker, were read in kinetic mode for 15 minutes (30 seconds/cycle) at ambient temperature on a PerkinElmer EnVision microplate reader (λEx=355 nm, λEm=460 nm). Initial velocities (slopes of the tangents at t=0) were estimated from exponential fits to the slightly nonlinear progress curves and then were converted to percent of control (“POC”) using the following equation:
[formula] • Where: Xmax Average Uninhibited Controls • Xmin Average Background A 4-parameter logistic model was the fit to the POC data for each compound. From that fit, the IC50 was estimated and is defined as the concentration of compound at which the curve crosses 50 POC.
The reported IC50 in Table 1 may be from a single assay or the mean of multiple assays.

T1 sequence (Q06124 2-527): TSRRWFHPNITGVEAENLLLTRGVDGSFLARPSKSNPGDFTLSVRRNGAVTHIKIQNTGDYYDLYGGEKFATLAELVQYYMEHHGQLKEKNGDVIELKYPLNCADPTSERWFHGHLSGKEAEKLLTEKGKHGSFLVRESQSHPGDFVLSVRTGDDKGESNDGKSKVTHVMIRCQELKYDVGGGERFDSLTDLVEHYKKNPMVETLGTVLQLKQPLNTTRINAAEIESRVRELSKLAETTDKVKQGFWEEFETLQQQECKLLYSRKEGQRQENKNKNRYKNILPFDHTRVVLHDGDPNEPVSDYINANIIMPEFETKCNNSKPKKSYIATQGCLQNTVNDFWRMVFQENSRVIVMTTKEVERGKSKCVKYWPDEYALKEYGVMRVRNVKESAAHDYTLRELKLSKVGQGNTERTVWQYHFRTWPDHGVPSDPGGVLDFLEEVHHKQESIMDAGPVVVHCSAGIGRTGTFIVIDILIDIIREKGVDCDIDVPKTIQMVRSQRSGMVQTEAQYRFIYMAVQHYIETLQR

SMILES | IC50 [nM]
NCC1CCN(c2cnc3nc(-c4cccc(Cl)c4Cl)ccc3n2)C1 (stereo not shown) [Example 28, (1-(6-(2,3-dichlorophenyl)pyrido[2,3-b]pyrazin-2-yl)pyrrolidin-3-yl)methanamine] | 830
CN(CCN)c1cnc2nc(-c3cccc(Cl)c3Cl)ccc2n1 [Example 29, N1-(6-(2,3-dichlorophenyl)pyrido[2,3-b]pyrazin-2-yl)-N1-methylethane-1,2-diamine] | 320
COc1ccc(-c2ccc3nc(N4CCC(C)(N)CC4)cnc3n2)c(Cl)c1Cl [Example 30, 1-(6-(2,3-dichloro-4-methoxyphenyl)pyrido[2,3-b]pyrazin-2-yl)-4-methylpiperidin-4-amine] | 420
C[C@@]1(N)CCN(c2cnc3nc(-c4cccc(Cl)c4Cl)ccc3n2)C1 [Example 32, (R)-1-(6-(2,3-dichlorophenyl)pyrido[2,3-b]pyrazin-2-yl)-3-methylpyrrolidin-3-amine] | 420
Cn1ncc2cccc(Sc3ccc4nc(N5CCC(C)(N)CC5)cnc4n3)c21 [Example 34, 4-methyl-1-(6-((1-methyl-1H-indazol-7-yl)thio)pyrido[2,3-b]pyrazin-2-yl)piperidin-4-amine] | 2600
COc1cccc(-c2ccc3nc(N4CCC(C)(N)CC4)cnc3n2)c1Cl [Example 37, 1-(6-(2-chloro-3-methoxyphenyl)pyrido[2,3-b]pyrazin-2-yl)-4-methylpiperidin-4-amine] | 1100
C[C@@H]1OCC2(CCN(c3cnc4nc(-c5cccc(Cl)c5Cl)ccc4n3)CC2)[C@@H]1N [Example 39, (3S,4S)-8-(6-(2,3-dichlorophenyl)pyrido[2,3-b]pyrazin-2-yl)-3-methyl-2-oxa-8-azaspiro[4.5]decan-4-amine] | 320
CC1(N)CCN(c2cnc3nc(Sc4nccn5nccc45)ccc3n2)CC1 [Example 40, 4-methyl-1-(6-(pyrazolo[1,5-a]pyrazin-4-ylthio)pyrido[2,3-b]pyrazin-2-yl)piperidin-4-amine] | 440
NCC1(O)CCN(c2cnc3nc(Sc4ccnc(N)c4Cl)ccc3n2)CC1 [Example 42, 1-(6-((2-amino-3-chloropyridin-4-yl)thio)pyrido[2,3-b]pyrazin-2-yl)-4-(aminomethyl)piperidin-4-ol] | 95
Nc1nccc(Sc2ccc3nc(N4CCC(N)(CO)CC4)cnc3n2)c1Cl [Example 43, (4-amino-1-(6-((2-amino-3-chloropyridin-4-yl)thio)pyrido[2,3-b]pyrazin-2-yl)piperidin-4-yl)methanol] | 100
COc1nccc(Sc2ccc3nc(N4CCC(N)(CO)CC4)cnc3n2)c1Cl [Example 44, (4-amino-1-(6-((3-chloro-2-methoxypyridin-4-yl)thio)pyrido[2,3-b]pyrazin-2-yl)piperidin-4-yl)methanol] | 120
NC1(CO)CCN(c2cnc3nc(Sc4ccnc(N5CCCC5)c4Cl)ccc3n2)CC1 [Example 45, (4-amino-1-(6-((3-chloro-2-(pyrrolidin-1-yl)pyridin-4-yl)thio)pyrido[2,3-b]pyrazin-2-yl)piperidin-4-yl)methanol] | 92
CC1(N)CCN(c2cnc3nc(-c4ccnc(N5CC[C@@H](O)C5)c4Cl)ccc3n2)CC1 [Example 46, (R)-1-(4-(2-(4-amino-4-methylpiperidin-1-yl)pyrido[2,3-b]pyrazin-6-yl)-3-chloropyridin-2-yl)pyrrolidin-3-ol] | 2900
CC1(N)CCN(c2cnc3nc(-c4ccnc(NCCO)c4Cl)ccc3n2)CC1 [Example 47, 2-((4-(2-(4-amino-4-methylpiperidin-1-yl)pyrido[2,3-b]pyrazin-6-yl)-3-chloropyridin-2-yl)amino)ethan-1-ol] | 6000
CC1(N)CCN(c2cnc3nc(Sc4cccc5ccncc45)ccc3n2)CC1 [Example 48, 1-(6-(isoquinolin-8-ylthio)pyrido[2,3-b]pyrazin-2-yl)-4-methylpiperidin-4-amine] | 460
CC1(N)CCN(c2cnc3nc(Sc4ccnc(N5CCCC5)c4Cl)ccc3n2)CC1 [Example 49, 1-(6-((3-chloro-2-(pyrrolidin-1-yl)pyridin-4-yl)thio)pyrido[2,3-b]pyrazin-2-yl)-4-methylpiperidin-4-amine] | 63
CC1(N)CCN(c2cnc3nc(-c4cccc5ccncc45)ccc3n2)CC1 [Example 50, 1-(6-(isoquinolin-8-yl)pyrido[2,3-b]pyrazin-2-yl)-4-methylpiperidin-4-amine] | 9000
Nc1nccc(Sc2ccc3nc(N4CCC[C@H](N)CC4)cnc3n2)c1Cl [Example 51, (S)-1-(6-((2-amino-3-chloropyridin-4-yl)thio)pyrido[2,3-b]pyrazin-2-yl)azepan-4-amine] | 65
COCC1(N)CCN(c2cnc3nc(Sc4ccnc(N)c4Cl)ccc3n2)CC1 [Example 53, 4-((2-(4-amino-4-(methoxymethyl)piperidin-1-yl)pyrido[2,3-b]pyrazin-6-yl)thio)-3-chloropyridin-2-amine] | 123
Nc1nccc(Sc2ccc3nc(N4CCC5(CC4)CNC5)cnc3n2)c1Cl [Example 54, 4-((2-(2,7-diazaspiro[3.5]nonan-7-yl)pyrido[2,3-b]pyrazin-6-yl)thio)-3-chloropyridin-2-amine] | 60
Nc1nccc(Sc2ccc3nc(N4CCC5(CCN5)CC4)cnc3n2)c1Cl [Example 55, 4-((2-(1,7-diazaspiro[3.5]nonan-7-yl)pyrido[2,3-b]pyrazin-6-yl)thio)-3-chloropyridin-2-amine] | 121
Nc1nccc(Sc2ccc3nc(N4[C@@H]5CCC[C@H]4CC(N)C5)cnc3n2)c1Cl (stereo partly drawn) [Example 56, (1R,5S)-9-(6-((2-amino-3-chloropyridin-4-yl)thio)pyrido[2,3-b]pyrazin-2-yl)-9-azabicyclo[3.3.1]nonan-3-amine] | 42
Nc1nccc(Sc2ccc3nc(N4C[C@H]5C[C@H](N)[C@@H](C4)O5)cnc3n2)c1Cl [Example 58, (1R,5R,6S)-3-(6-((2-amino-3-chloropyridin-4-yl)thio)pyrido[2,3-b]pyrazin-2-yl)-8-oxa-3-azabicyclo[3.2.1]octan-6-amine] | 153

Same assay, conditions: full-length SHP2 with 1 μM activating peptide, 50 μM DiFMUP; single assay or mean of multiple assays; read-out: Biological Example 1 IC50

SMILES | IC50 [nM]
CNC1(C)CCN(c2cnc3nc(Sc4ccnc(N)c4Cl)ccc3n2)CC1 [Example 31, 3-chloro-4-((2-(4-methyl-4-(methylamino)piperidin-1-yl)pyrido[2,3-b]pyrazin-6-yl)thio)pyridin-2-amine] | 100
CC1(N)CCN(c2cnc3nc(Sc4cccc(C#N)c4Cl)ccc3n2)CC1 [Example 35, 3-((2-(4-amino-4-methylpiperidin-1-yl)pyrido[2,3-b]pyrazin-6-yl)thio)-2-chlorobenzonitrile] | 270
CC1(N)CCN(c2cnc3nc(Sc4cccn5nccc45)ccc3n2)CC1 [Example 36, 4-methyl-1-(6-(pyrazolo[1,5-a]pyridin-4-ylthio)pyrido[2,3-b]pyrazin-2-yl)piperidin-4-amine] | 400
CC1(N)CCN(c2cnc3nc(-c4cccc5ccccc45)ccc3n2)CC1 [Example 38, 4-methyl-1-(6-(naphthalen-1-yl)pyrido[2,3-b]pyrazin-2-yl)piperidin-4-amine] | 290
Nc1nccc(Sc2ccc3nc(N4[C@H]5CC[C@H]4CC(N)C5)cnc3n2)c1Cl (stereo partly drawn) [Example 52, (1R,3s,5S)-8-(6-((2-amino-3-chloropyridin-4-yl)thio)pyrido[2,3-b]pyrazin-2-yl)-8-azabicyclo[3.2.1]octan-3-amine] | 70
